Among the data in ChEMBL document CHEMBL5329199, “Discovery of novel dual Bruton's tyrosine kinase (BTK) and Janus kinase 3 (JAK3) inhibitors as a promising strategy for rheumatoid arthritis” (Bioorg Med Chem, 2023) are IC50 and MLD values, retold here.

The target in data set [1] is T1, Tyrosine-protein kinase JAK3 (Homo sapiens, UniProt P52333).
T1 sequence (P52333 whole entry): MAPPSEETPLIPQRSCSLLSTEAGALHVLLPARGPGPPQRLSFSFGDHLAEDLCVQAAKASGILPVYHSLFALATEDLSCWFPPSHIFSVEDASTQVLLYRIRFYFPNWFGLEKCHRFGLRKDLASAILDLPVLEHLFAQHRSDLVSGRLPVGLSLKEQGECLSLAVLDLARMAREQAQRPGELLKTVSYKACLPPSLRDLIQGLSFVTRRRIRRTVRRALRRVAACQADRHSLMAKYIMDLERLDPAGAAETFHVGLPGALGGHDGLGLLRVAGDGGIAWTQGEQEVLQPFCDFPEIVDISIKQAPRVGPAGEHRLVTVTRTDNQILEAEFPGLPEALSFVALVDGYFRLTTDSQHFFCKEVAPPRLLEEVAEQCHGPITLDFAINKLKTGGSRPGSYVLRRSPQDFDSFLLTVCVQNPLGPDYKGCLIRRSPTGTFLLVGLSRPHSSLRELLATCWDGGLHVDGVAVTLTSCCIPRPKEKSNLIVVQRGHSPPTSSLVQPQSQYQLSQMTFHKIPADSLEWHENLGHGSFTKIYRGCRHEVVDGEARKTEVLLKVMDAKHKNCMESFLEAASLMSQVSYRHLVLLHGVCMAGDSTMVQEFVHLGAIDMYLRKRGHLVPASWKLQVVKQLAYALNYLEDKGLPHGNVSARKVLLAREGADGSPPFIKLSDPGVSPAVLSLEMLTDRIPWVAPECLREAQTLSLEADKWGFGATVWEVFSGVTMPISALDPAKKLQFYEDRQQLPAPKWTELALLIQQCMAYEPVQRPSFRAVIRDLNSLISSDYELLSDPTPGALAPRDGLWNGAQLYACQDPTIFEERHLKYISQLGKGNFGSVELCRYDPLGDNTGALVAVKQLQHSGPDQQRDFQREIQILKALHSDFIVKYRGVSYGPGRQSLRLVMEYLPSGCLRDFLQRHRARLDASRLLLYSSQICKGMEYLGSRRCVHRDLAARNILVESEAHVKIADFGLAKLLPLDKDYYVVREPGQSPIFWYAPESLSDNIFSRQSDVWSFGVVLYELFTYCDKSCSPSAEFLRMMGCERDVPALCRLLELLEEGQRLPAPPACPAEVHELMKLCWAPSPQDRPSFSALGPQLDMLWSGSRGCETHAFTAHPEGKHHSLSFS
As to the kind of experiment: Inhibition of JAK3 (unknown origin) preincubated for 10 mins followed by kinase substrate and ATP addition and measured for 30 mins by mobility shift assay.

Data set [2] concerns the target Tyrosine-protein kinase BTK (Homo sapiens, UniProt Q06187). As to the kind of experiment: Inhibition of BTK (unknown origin) preincubated for 10 mins followed by kinase substrate and ATP addition and measured for 20 mins by mobility shift assay.
In the next data set the test system is BaF3. As to the kind of experiment: Antiproliferative activity against mouse BaF3 cells expressing JAK3 mutant assessed as inhibition of cell growth incubated for 72 hrs by Cell Titer-Glo assay. The format is functional, cell-based. As to conditions: BaF3, 72 h. In general terms: Cellular ATP, detected with luciferase, serves as a proxy for viable cell number.

The nature of data set [3]: Acute toxicity in po dosed ICR mouse assessed as minimum lethal dose measured for 7 days. It counts as organism-based. As to conditions: in vivo, 168 h, time 7 day.
The test system of the next data set is Daudi. As to the kind of experiment: Antiproliferative activity against human Daudi cells assessed as inhibition of cell growth incubated for 72 hrs by Cell Titer-Glo assay. The format is functional, cell-based.

Sequence of Tyrosine-protein kinase BTK (Q06187 whole entry): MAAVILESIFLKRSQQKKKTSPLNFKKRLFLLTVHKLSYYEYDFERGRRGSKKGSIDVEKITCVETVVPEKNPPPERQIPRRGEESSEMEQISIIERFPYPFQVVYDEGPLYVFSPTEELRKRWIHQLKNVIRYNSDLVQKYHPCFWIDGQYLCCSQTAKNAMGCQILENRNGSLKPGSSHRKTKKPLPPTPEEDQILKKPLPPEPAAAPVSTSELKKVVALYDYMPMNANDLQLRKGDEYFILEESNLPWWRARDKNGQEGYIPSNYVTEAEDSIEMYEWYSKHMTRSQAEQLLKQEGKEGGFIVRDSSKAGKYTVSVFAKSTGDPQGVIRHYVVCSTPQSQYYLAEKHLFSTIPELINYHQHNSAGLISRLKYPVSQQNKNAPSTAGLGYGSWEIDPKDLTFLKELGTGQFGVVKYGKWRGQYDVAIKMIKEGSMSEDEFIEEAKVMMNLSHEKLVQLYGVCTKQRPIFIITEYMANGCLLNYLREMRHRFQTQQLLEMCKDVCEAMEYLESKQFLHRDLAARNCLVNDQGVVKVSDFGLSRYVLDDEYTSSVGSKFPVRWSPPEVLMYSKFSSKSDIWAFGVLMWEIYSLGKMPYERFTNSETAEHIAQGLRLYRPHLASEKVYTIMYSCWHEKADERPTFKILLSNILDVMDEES

As usually defined, the IC50 is the concentration that gives 50% inhibition. As to `C=CC(=O)Nc1cccc(Cn2nc(-c3ccc(NC(=O)c4ccccc4)c4c3OCO4)c3c(N)ncnc32)c1`, the values for the IC50 in data set [1] and in data set [2] were more than 10000 nM and 29 nM, respectively.

Consider `C=CC(=O)N1CCC[C@@H](n2nc(-c3ccc(NC(=O)C45CC6CC(CC(C6)C4)C5)c4c3OCO4)c3c(N)ncnc32)C1`, for which the half-maximal inhibitory concentration (IC50) in data set [1] is 500 nM; in data set [2] it was 5.94 nM.

In the case of `N#CCC(=O)N1CCC[C@@H](n2nc(-c3ccc(NC(=O)c4ccccc4)c4c3OCO4)c3c(N)ncnc32)C1`, the IC50 is more than 10000 nM in data set [1] and 60 nM in data set [2].

For `C=CC(=O)N1CCC[C@@H](n2nc(-c3ccc(NC(=O)c4ccc(-c5ccccc5)cc4)c4c3OCO4)c3c(N)ncnc32)C1`, the half-inhibitory concentration (IC50) in data set [1] worked out at 120 nM; in data set [2], 2.1 nM.

In the case of `C=CC(=O)N1CCC[C@@H](n2nc(-c3ccc(NC(=O)c4sc5ccccc5c4Cl)c4c3OCO4)c3c(N)ncnc32)C1`, the values for the concentration for half-maximal inhibition (IC50) in data set [1] and in data set [2] were 30 nM and 2.4 nM, respectively.

As to `C=CC(=O)N1CCC[C@@H](n2nc(-c3ccc(NC(=O)C45CCC(CC4)C5)c4c3OCO4)c3c(N)ncnc32)C1`, the 50% inhibitory concentration (IC50) is 500 nM in data set [1] and 1.48 nM in data set [2].

On to `C=CC(=O)N1CCC[C@@H](n2nc(-c3ccc(NC(=O)c4cccc(N(C)C)c4)c4c3OCO4)c3c(N)ncnc32)C1`, for which the half-inhibitory concentration (IC50) in data set [1] was found to be 97 nM; in data set [2], 1.02 nM.

`C=CC(=O)N1CCC[C@@H](n2nc(-c3ccc(Oc4ccccc4)cc3)c3c(N)ncnc32)C1` [IBRUTINIB]: the figures for the IC50 in the data set on BaF3 and in the data set with Daudi were 1420 nM and 656 nM, respectively. Moreover, the MLD in data set [3] turned out to be 750 mg/kg.

Take `C=CC(=O)N1CCC[C@@H](n2nc(-c3ccc(NC(=O)c4ccccn4)c4c3OCO4)c3c(N)ncnc32)C1`: the concentration for half-maximal inhibition (IC50) turned out to be 70 nM in data set [1] and 1.4 nM in data set [2].

For the compound `C=CC(=O)N1CCC[C@@H](n2nc(-c3ccc(NC(=O)C4CCN(C)CC4)c4c3OCO4)c3c(N)ncnc32)C1`, the IC50 is more than 10000 nM in data set [1] and 585 nM in data set [2].

`C=CC(=O)N1CCC[C@@H](n2nc(-c3ccc(NC(=O)c4ccc(C(F)(F)F)cc4)c4c3OCO4)c3c(N)ncnc32)C1`: the IC50 in data set [1] was 51 nM; in data set [2] it was 1.8 nM.

For `C=CC(=O)N1CCC[C@@H](n2nc(-c3ccc(NC(=O)c4ccccc4Cl)c4c3OCO4)c3c(N)ncnc32)C1`, the IC50 in data set [1] was found to be 106 nM; in data set [2] it was 2 nM.

On to `C=CC(=O)N1CCC[C@@H]1Cn1nc(-c2ccc(NC(=O)c3ccc(N(C)C)cc3)c3c2OCO3)c2c(N)ncnc21`, for which the 50% inhibitory concentration (IC50) in data set [1] is 645 nM; in data set [2] it was 6 nM.

`CC#CC(=O)N1CCC[C@@H](n2nc(-c3ccc(NC(=O)c4ccccc4)c4c3OCO4)c3c(N)ncnc32)C1`: the 50% inhibitory concentration (IC50) in data set [1] was more than 10000 nM; in data set [2] it was 24 nM.

For `C=CC(=O)N1CCC[C@@H](n2nc(-c3ccc(NC(=O)c4ccc(C(C)(C)C)cc4)c4c3OCO4)c3c(N)ncnc32)C1`, the IC50 in data set [1] stood at 37 nM; in data set [2], 2.7 nM.

For `C=CC(=O)N1CCC[C@@H](n2nc(-c3ccc(NC(=O)c4ccc(C#N)cc4)c4c3OCO4)c3c(N)ncnc32)C1`, the IC50 in data set [1] came out at 372 nM; in data set [2], 2.9 nM.

As to `C=CC(=O)N1CCC[C@@H](n2nc(-c3ccc(NC(=O)c4ccccc4)c4c3OCO4)c3c(N)ncnc32)C1`, the figures for the IC50 in data set [1] and in data set [2] were 73 nM and 1.3 nM, respectively.

With `C=CC(=O)N1CCC[C@@H](n2nc(-c3ccc(NC(=O)c4ccc[nH]4)c4c3OCO4)c3c(N)ncnc32)C1`, the IC50 in data set [1] amounted to 100 nM; in data set [2], 2.4 nM.

As to `C=CC(=O)N1CCC[C@@H](n2nc(-c3ccc(NC(=O)c4ccc(OC)cc4)c4c3OCO4)c3c(N)ncnc32)C1`, the IC50 was 44 nM in data set [1] and 1.5 nM in data set [2].

With `C=CC(=O)N1CCC[C@@H](n2nc(-c3ccc(NC(=O)c4ccc(F)cc4)c4c3OCO4)c3c(N)ncnc32)C1`, the IC50 in data set [1] turned out to be 176 nM; in data set [2], 0.9 nM.

Consider `C=CC(=O)N1CCC[C@@H](n2nc(-c3ccc(NC(=O)c4cc5ccccc5s4)c4c3OCO4)c3c(N)ncnc32)C1`, for which the IC50 in data set [1] is 19 nM; in data set [2], 0.42 nM.

Regarding `C=CC(=O)N1CCC[C@@H](n2nc(-c3ccc(NC(=O)c4cccc(Cl)c4)c4c3OCO4)c3c(N)ncnc32)C1`, the IC50 in data set [1] amounted to 44 nM; in data set [2], 1.8 nM.

`C=CC(=O)N1CCC[C@@H](n2nc(-c3ccc(NC(=O)c4cccc5c4CCCC5)c4c3OCO4)c3c(N)ncnc32)C1`: the IC50 turned out to be 35 nM in data set [1] and 1.9 nM in data set [2].

As to `C=CC(=O)N1CCC[C@@H](n2nc(-c3ccc(NC(=O)c4ccco4)c4c3OCO4)c3c(N)ncnc32)C1`, the IC50 stood at 192 nM in data set [1] and 1.48 nM in data set [2].

For the compound `C=CC(=O)N1CCC[C@@H](n2nc(-c3ccc(NC(=O)c4cccs4)c4c3OCO4)c3c(N)ncnc32)C1`, the IC50 came to 61 nM in data set [1] and 1.7 nM in data set [2].

With `C=CC(=O)N1CCC[C@@H](n2nc(-c3ccc(NC(=O)c4ccc(Cl)cc4)c4c3OCO4)c3c(N)ncnc32)C1`, the IC50 in data set [1] was determined as 44 nM; in data set [2], 1.3 nM.

As to `CCC(=O)N1CCC[C@@H](n2nc(-c3ccc(NC(=O)c4ccccc4)c4c3OCO4)c3c(N)ncnc32)C1`, the figures for the IC50 in data set [1] and in data set [2] were more than 10000 nM and 46 nM, respectively.

Consider `N#C/C(=C\C1CC1)C(=O)N1CCC[C@@H](n2nc(-c3ccc(NC(=O)c4ccccc4)c4c3OCO4)c3c(N)ncnc32)C1`, for which the IC50 in data set [1] was more than 10000 nM; in data set [2], 3 nM.

`C=CC(=O)N1CCC[C@@H](n2nc(-c3ccc(NC(=O)c4ccccc4N(C)C)c4c3OCO4)c3c(N)ncnc32)C1`: the IC50 is 122 nM in data set [1] and 3.49 nM in data set [2].

Consider `C=CC(=O)N1CCC[C@@H](n2nc(-c3ccc(NC(=O)c4ccc(OC)c(OC)c4)c4c3OCO4)c3c(N)ncnc32)C1`, for which the IC50 in data set [1] was 147 nM; in data set [2], 3.4 nM.

As to `C=CC(=O)N1CCC[C@@H](n2nc(-c3ccc(NC(=O)c4ccc(N(CC)CC)cc4)c4c3OCO4)c3c(N)ncnc32)C1`, the concentration for half-maximal inhibition (IC50) amounted to 27 nM in data set [1] and 2.2 nM in data set [2].
